Measured values reported in publication PMC9143821, “Design and Synthesis of a Novel 4-aryl-N-(2-alkoxythieno [2,3-b]pyrazine-3-yl)-4-arylpiperazine-1-carboxamide DGG200064 Showed Therapeutic Effect on Colon Cancer through G2/M Arrest” (Pharmaceuticals, 2022).

Key:
[1] = Pharmacokinetics in ICR mice; type: in vivo; conditions: mouse, plasma, 5 mg/kg
pKa determination = type: physicochemical
Description: (§1) Table 4 Physicochemical Properties of the Lead Compounds 7c. | column: 7c

Permeability = type: in vitro ADME
Description: as §1

HCT116 and DLD1 cells = assay: Immunoblotting of cell cycle and FBXW7 substrate proteins; type: cell-based, human; conditions: 6 h
Method: HCT116 and DLD1 cells were exposed to increasing concentrations of DGG200064 (0, 10, 50, 100 nM) for 6 h. […] Moreover, there were increased levels of c-Jun by DGG200064 (50 nM) treatment in other 6-colon cancer cells (Figure S1, Supplementary Materials). c-Jun is a component of the transcription factor activator protein 1 (AP-1), which is activated by a variety of extracellular stimuli, such as growth factors and UV irradiation. In cancer cells, activation of c-Jun promotes down-stream target gene transcription, and it is involved in cell proliferation, growth, division, and apoptosis. […] To test whether DGG200064 could induce G2/M cell cycle arrest through the increasing of c-Jun level, the two genes were silenced using c-Jun siRNAs and treated with DGG200064 in HCT116 and DLD1 cells (Figure 3c). When c-Jun was silenced, the amount of cyclin B protein treated by DGG200064 decreased. […]
The whole-cell lysate was prepared using Radioimmunoprecipitation assay buffer (RIPA buffer) prepared in 50 mM Tris-HCl, pH 8.0, with 150 mM sodium chloride, 1.0% Igepal CA-630 (NP-40), 0.5% sodium deoxycholate, 0.1% sodium dodecyl sulfate, protease inhibitor cocktail, and phosphatase inhibitor cocktail. […] Membranes were washed five times with TBST, and chemiluminescence was detected using Westsave™ (Abfrontier, Seoul, Korea). […]

FBXW7/c-Jun interaction = assay: Immunoprecipitation, ubiquitination and FBXW7/c-Jun interaction; type: cell-based, human
Description: To investigate whether the ubiquitination of c-Jun is suppressed through the inhibition of c-Jun and FBXW7 binding by DGG200064, c-Jun immunoprecipitation was done to observe protein–protein interaction (Figure 4). E3 ligase, such as FBXW7, binds the protein to the ubiquitin chain through covalent bonds and rapidly degrades the protein through 26S proteasome. When treated with MG132 as a proteasome inhibitor, the ubiquitination of c-Jun increased compared to both control HCT116 and DLD1 cells. In contrast, the c-Jun ubiquitination was inhibited by DGG200064. The binding between c-Jun and FBXW7 was reduced with DGG200064 treatment. The FBXW7 protein, also known as CDC4, is a component of the SCF complex ubiquitin ligase and is known as a modulator of several substrates including cyclin E, c-Myc, c-Jun, and Notch. To check the selectivity of DGG200064 towards FBXW7 substrates, the change of c-Jun, cyclin E, and c-Myc by DGG200064 was analyzed. […] Cyclin E immunoprecipitation was done to test whether the ubiquitination of cyclin E by FBXW7 is inhibited by DGG200064 in HCT116 (Figure S2b, Supplementary Materials). There were no changes in cyclin E ubiquitination with DGG200064 treatment.
To identified ubiquitination of c-Jun by DGG200064, HCT116 cells were treated with/without MG132 (10 μM) for 6h, DGG200064 (50 nM) for 18 h. The cell lysate was prepared using RIPA buffer for immunoprecipitation. Each lysate was mixed with antibodies (1 μg/mL) of c-Jun or MYC at 4 °C overnight in immunoprecipitation buffer containing 50 mM Tris-Cl,150 mM NaCl, 1 mM EDTA, 0.5% Triton X-100, pH 7.4, and reacted with 10 μL of protein A/G beads UltraLink Resin (50:50 resin: buffer slurry condition) (Peirce, #35133) for 2 h on RT for precipitation. After reaction and centrifugation at 3000 rpm for 3 min, the immunoprecipitated samples were washed with 500 μL of immunoprecipitation buffer by tapping and centrifuged. The washing was repeated five times before western blotting.

COc1cc(OC)cc(N2CCN(C(=O)Nc3nc4sccc4nc3OC)CC2)c1 [Compound 7c, 4-(3,5-Dimethoxyphenyl)-N-(2-methoxythieno[2,3-b]pyrazin-3-yl)piperazine-1-carboxamide]
AUC(0-inf) ([1]; IV): 16600 ng·h/mL
AUC(0-t) ([1]; IV): 16400 ng·h/mL
clearance ([1]; IV): 5.08 mL/min/kg
half-life ([1]; IV): 2.98 h
AUC(0-inf) ([1]; PO): 2340 ng·h/mL
AUC(0-t) ([1]; PO): 2260 ng·h/mL
Cmax ([1]; PO): 798 ng/mL
Tmax ([1]; PO): 0.667 h
bioavailability ([1]; PO): 13.8%
half-life ([1]; PO): 5.2 h
pKa (pKa determination; first of two values): 2.39
pKa (pKa determination; second of two values): 11.6
Permeability Class (Permeability): High
Papp (Permeability; PAMPA, read-out: Permeability Pe): 29.5 ×10⁻⁶ cm/s
cyclin E and c-Myc levels (HCT116 and DLD1 cells; HCT116, 0, 10, 50, 100 nM): not affected
cyclin B1, c-Jun and p-c-Jun levels (HCT116 and DLD1 cells; HCT116 and DLD1, 0, 10, 50, 100 nM): dose-dependent increase
cyclin E ubiquitination (FBXW7/c-Jun interaction; HCT116, cyclin E immunoprecipitation): no changes
binding between c-Jun and FBXW7 (FBXW7/c-Jun interaction; HCT116 and DLD1, 50 nM, 18 h, c-Jun immunoprecipitation): reduced
c-Jun ubiquitination (FBXW7/c-Jun interaction; HCT116 and DLD1, DGG200064 50 nM 18 h, MG132 10 μM 6 h): inhibited
